Consider three molecules from patent US9434711B2 (Janssen Pharmaceutica, NV, priority 2007, dated 2016).

Assay [1] deals with Male Sprague Dawley rats. Nature of the assay: Chronic Constriction Injury (CCI)-Induced Model of Neuropathic Pain, Acetone-Induced Hypersensitivity. It counts as in vivo, rat. To be noted: Rattus norvegicus; for inhibition in vivo at 3 mg/kg: 3 mg/kg p.o.; for inhibition in vivo at 10 mg/kg: 10 mg/kg p.o.
For a further assay, the system named is Sprague-Dawley rats. Nature of the assay: CFA-Induced Paw Radiant Heat Hypersensitivity. The assay is classed as in vivo, rat. The settings on record: dose 10 p.o., HPbCD, treatment time 100 min, Na salt form. The protocol:
Intraplantar injection of complete Freund's adjuvant (CFA) in rodents results in a long-lasting inflammatory reaction, characterized by a pronounced hypersensitivity to both thermal and mechanical stimuli. This hypersensitivity peaks between 24-72 hours following injection and can last for several weeks. To assess whether test compounds of the formula (I) reverse established hypersensitivity, a 100 μL intraplantar injection of CFA (suspended in a 1:1 emulsion of saline and heat-killed Mycobacterium tuberculosis in mineral oil) can be injected into a single hind paw of Sprague-Dawley rats (typically males ranging from 150-350 g). This paradigm also may be conducted with a multiple dosing or a prophylactic dosing regime designed to alter the course of hyperalgesia development. This test predicts the analgesic, anti-allodynic and antihyperalgesic effect of numerous effective clinical agents, including acetaminophen, NSAIDS such as aspirin and ibuprofen, and opioids, such as morphine.
Each rat is placed in a test chamber on a warm glass surface and allowed to acclimate for approximately 10 minutes. A radiant thermal stimulus (beam of light) is then focused through the glass onto the plantar surface of each hind paw in turn. The thermal stimulus is automatically shut off by a photoelectric relay when the paw is moved or when the cut-off time is reached (20 seconds for radiant heat at […]). An initial (baseline) response latency to the thermal stimulus is recorded for each animal prior to the injection of CFA. Twenty-four hours following intraplantar CFA injection, the response latency of the animal to the thermal stimulus is then re-evaluated and compared to the animal's baseline response time. […] Immediately following the post-CFA latency assessment, test compound or vehicle (usually Solutol, hydroxypropyl methylcellulose, hydroxypropyl beta-cyclodextrin or PEG-400) is administered i.p. or p.o. to rats. Post-compound treatment withdrawal latencies are assessed at fixed time intervals, typically 30, 60 and 120 minutes. The percent reversal (% R) of hypersensitivity is calculated according to the following formula: % Reversal=(Treatment Response-CFA Response)/(Baseline Response-CFA Response)×100.

For assay [2], the system named is Male Sprague Dawley rats. The assay is described as follows: Inhibition of Icilin-Induced "Wet-Dog" Shakes in Rats. The assay is classed as in vivo, rat. To be noted: Rattus norvegicus, po, 2 h, Water, 120 min pre-icilin, Na salt form. The protocol: Male Sprague Dawley rats (220-450 g, Charles River Labs, n=6-9/treatment) were used to evaluate the ability of selected compounds of the formula (I) to block icilin-induced “wet-dog” shakes (WDS). Compounds of the formula (I) were administered in an appropriate vehicle, such as hydroxypropyl-β-cyclodextrin (HPβCD), methocellulose, 10% Solutol, or H2O, or the like, by the appropriate route, i.p. or p.o., 30-120 minutes before icilin. Icilin was administered in PEG-400 or 10% solutol/H2O, at 1.0 or 3.0 mg/kg, i.p. and spontaneous “wet-dog” shakes were counted 10-20 minutes post-icilin. Results are presented as a percent inhibition of shakes, which was calculated as [1-(test compound WDS count/vehicle WDS count)]×100.

The target of another assay is canine TRPM8 (Canis lupus familiaris, UniProt Q1A7N1). The assay is described as follows: In Vitro Canine TRPM8 Functional Assay (Ca2+ fluorescence, icilin activation). It counts as cell-based. The settings on record: for IC50: HEK293 cells stably expressing canine TRPM8, icilin activation, eight-point dose-response, read-out: IC50. The method in brief:
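Eight-point dose-response curves, each point averaging quadruplicate wells, gave EC50 or IC50. Canine TRPM8-expressing HEK293 cells, dye-loaded (Calcium 3), were pre-exposed 5 min to compound, then challenged with icilin at roughly EC80; intracellular Ca2+ read by FLIPR or FDSS fluorescence.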

Assay [3] has as its system Male Sprague Dawley rats. Nature of the assay: Rightward Shift of Icilin Dose Effect Curve in Rats. The assay is classed as in vivo. The settings on record: Rattus norvegicus, ip; icilin i.p., wet-dog shakes, no pretreatment; read-out: Icilin ED50, mg/kg, i.p., no pretreatment. The protocol: Male Sprague Dawley rats (200-400 g, Charles River Labs, n=6-9/treatment) were administered icilin in a suitable vehicle (e.g. PEG-400, 10% Solutol) at 0.1-30 mg/kg, i.p. Spontaneous “wet-dog” shakes were counted 10-20 minutes post-icilin in order to generate a icilin dose-effect curve. A compound of the present invention was administered orally in hydroxypropyl-β-cyclodextrin 60 minutes before icilin challenge to assess the compound's ability to inhibit spontaneous “wet-dog” shakes (WDS) produced by a range of icilin doses. The ED50 of the icilin dose-effect curve generated in the presence of TRPM8 antagonist may be compared to that generated in the presence of vehicle to determine the magnitude of rightward shift as shown below in Table 7.

Assay [4] deals with Male Sprague Dawley rats. Nature of the assay: Reversal of Icilin-Induced Behaviors in Rats. It counts as in vivo. The settings on record: Rattus norvegicus, po, 1 h, 1 h post-icilin. The protocol: Male Sprague Dawley rats (225-450 g, Charles River Labs, n=4-6/treatment) were used to evaluate the ability of selected compounds of the formula (I) to reverse icilin-induced “wet-dog” shakes. Icilin was administered in PEG-400 or 10% solutol/H2O, at 1.0 or 3.0 mg/kg, i.p. and spontaneous “wet-dog” shakes (WDS) were counted 10-20 minutes post-icilin. […] Results are presented as a percent inhibition of shakes, which was calculated as [1-(test compound WDS count/vehicle WDS count)]×100.

The mark [5] stands for this setting: po, 2 h, Water, pretreatment 2 hr, Na salt form, read-out: Percent Inhibition.
Where [6] appears, read: po, 1 h, 10% Solutol, pretreatment 1 hr, CO2H form, read-out: Percent Inhibition.

Sequence of canine TRPM8 (Q1A7N1 1-1104): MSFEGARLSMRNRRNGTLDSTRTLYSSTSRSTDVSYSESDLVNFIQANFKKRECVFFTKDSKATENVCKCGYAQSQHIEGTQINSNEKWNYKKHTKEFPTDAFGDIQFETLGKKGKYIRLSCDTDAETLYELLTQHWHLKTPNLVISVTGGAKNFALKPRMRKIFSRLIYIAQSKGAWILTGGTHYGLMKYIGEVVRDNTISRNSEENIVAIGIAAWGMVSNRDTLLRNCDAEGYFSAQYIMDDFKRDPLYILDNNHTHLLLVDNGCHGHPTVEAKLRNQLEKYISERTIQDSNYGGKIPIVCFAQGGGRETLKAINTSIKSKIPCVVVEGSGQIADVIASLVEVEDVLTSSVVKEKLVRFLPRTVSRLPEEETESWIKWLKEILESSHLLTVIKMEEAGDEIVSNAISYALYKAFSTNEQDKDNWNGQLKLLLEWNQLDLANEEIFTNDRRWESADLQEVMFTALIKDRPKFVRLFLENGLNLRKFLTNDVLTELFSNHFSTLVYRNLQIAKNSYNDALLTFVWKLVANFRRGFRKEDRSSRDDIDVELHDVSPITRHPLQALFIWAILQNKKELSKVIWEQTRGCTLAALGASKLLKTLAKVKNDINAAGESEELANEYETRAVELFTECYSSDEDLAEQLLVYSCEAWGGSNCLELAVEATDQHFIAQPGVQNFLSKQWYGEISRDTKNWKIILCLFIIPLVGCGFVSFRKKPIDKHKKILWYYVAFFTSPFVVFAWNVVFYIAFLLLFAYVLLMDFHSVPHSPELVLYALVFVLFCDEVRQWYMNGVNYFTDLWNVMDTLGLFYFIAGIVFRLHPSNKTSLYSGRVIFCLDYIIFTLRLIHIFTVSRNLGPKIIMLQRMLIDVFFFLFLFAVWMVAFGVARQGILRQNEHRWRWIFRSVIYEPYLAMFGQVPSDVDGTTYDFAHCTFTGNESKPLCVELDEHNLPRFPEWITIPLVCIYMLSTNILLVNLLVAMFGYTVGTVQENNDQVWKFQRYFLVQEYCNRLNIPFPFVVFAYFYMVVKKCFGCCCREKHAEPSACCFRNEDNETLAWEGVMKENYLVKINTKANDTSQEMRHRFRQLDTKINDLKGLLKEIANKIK

As usually defined, the IC50 is the midpoint of a concentration-inhibition curve. Take `CC(C)(O)c1c(N(Cc2ccc(F)c(C(F)(F)F)c2)S(=O)(=O)c2ccc(C(=O)O)cc2)sc2ccccc12` [Compound 361, N-(4-Fluoro-3-trifluoromethylbenzyl)-N-(3-(1-hydroxy-1-methyl-ethyl)-benzo[b]thiophen-2-yl)-4-carboxy-benzenesulfonamide]: the inhibition in vivo at 3 mg/kg with Male Sprague Dawley rats [1] (setting [5]) was determined as 9%. In the assay on Male Sprague Dawley rats [1] (setting [5]), the inhibition in vivo at 10 mg/kg is 17%. Moreover, the inhibition in vivo at 30 mg/kg in the assay with Male Sprague Dawley rats [1] (po, 2 h, 30 mg/kg p.o., Water, pretreatment 2 hr, Na salt form, read-out: Percent Inhibition) is 91%; in the assay on Male Sprague Dawley rats [1] (po, 4 h, 30 mg/kg p.o., Water, pretreatment 4 hr, Na salt form, read-out: Percent Inhibition), 74%. Moreover, the ED50 was found to be 13 mg/kg with Male Sprague Dawley rats [1] (po, Water, pretreatment 2 hr, Na salt form) and 4.5 mg/kg in the assay with Male Sprague Dawley rats [2]. Also, the “Percent Reversal” value in the assay with Sprague-Dawley rats is on record as 28%. At canine TRPM8, the concentration for half-maximal inhibition (IC50) was 0.8 nM. The inhibition at 0.2 µM on canine TRPM8 (compound at 0.2 μM, canine TRPM8, icilin activation, read-out: % Inh @ 0.2) came to 93%.
For `O=C1NC(c2cccc([N+](=O)[O-])c2)=CCN1c1ccccc1O` [Icilin, reference compound], in the assay on Male Sprague Dawley rats [3], the ED50 was determined as 0.75 mg/kg.
In the case of `O=S(=O)(c1ccccc1)N(Cc1ccc(F)c(C(F)(F)F)c1)c1sc2ccccc2c1Br` [Compound 177, N-(3-Bromo-benzo[b]thiophen-2-yl)-N-(4-fluoro-3-trifluoromethyl-benzyl)-benzenesulfonamide], the inhibition in vivo at 30 mg/kg in the assay with Male Sprague Dawley rats [1] (ip, 3 h, 30 mg/kg i.p., 10% Solutol, pretreatment 3 hr, CO2H form, read-out: Percent Inhibition) is 60%; in the assay with Male Sprague Dawley rats [1] (po, 1 h, 30 mg/kg p.o., 10% Solutol, pretreatment 1 hr, CO2H form, read-out: Percent Inhibition), 46%; with Male Sprague Dawley rats [4] (30 mg/kg p.o.), 66%. In addition, the inhibition in vivo at 3 mg/kg in the assay with Male Sprague Dawley rats [1] (setting [6]) was 23%; with Male Sprague Dawley rats [4] (3 mg/kg p.o.) it was 15%. Besides, the inhibition in vivo at 10 mg/kg worked out at 49% with Male Sprague Dawley rats [1] (setting [6]) and 53% in the assay on Male Sprague Dawley rats [4] (10 mg/kg p.o.). For the same molecule, the inhibition in vivo at 100 mg/kg in the assay on Male Sprague Dawley rats [1] (po, 1 h, 100 mg/kg p.o., 10% Solutol, pretreatment 1 hr, CO2H form, read-out: Percent Inhibition) was found to be 70%; in the assay on Male Sprague Dawley rats [4] (100 mg/kg p.o.), 52%. The inhibition in vivo at 16.6 mg/kg in the assay with Male Sprague Dawley rats [4] (16.6 mg/kg p.o.) was 54%. The IC50 on canine TRPM8 came to 5.7 nM. Also, at canine TRPM8 (compound at 0.5 μM, canine TRPM8, icilin activation, read-out: % Inh @ 0.5), the inhibition at 0.5 µM amounted to 96%.
